Patent US20010000177A1, “Novel class of thiomorpholino substituted thiazoles” (priority 1999, published 2001)
Converted amounts (≈) assume the structure as drawn. Marks after values point to notes of the source that are not given here.

Experiments:
Format in all cases: cell-based
[1] = system: Candida and Cryptococcus strains (organism not given); assay: Broth microdilution antifungal activity, Table II fourth MIC/MCC column pair; settings: for MIC = Minimum inhibitory concentration (50% Inhibition) / MCC = Minimum cytolytic concentration: fourth column pair of Table II; for MIC = Minimum inhibitory concentration (50% Inhibition): YNB broth pH 7.0; for MCC = Minimum cytolytic concentration: subculture on SDA plate
Experimental: (§1) Organisms: Three strains of Candida (Candida parpsilosis, Candida tropicalis, Candida albicans-ATCC 36082) as well as Cryptococcus neoformans were used for the initial testing. […] All clinical strains used in this study were blood culture isolates from the Clinical Microbiology Laboratory of Harbor-UCLA Medical Center, Torrance, Calif. The organisms were maintained on Sabourahd Dextrose Agar slants at 4° C. For experimentation, singlet suspensions of each organism were prepared by growing the yeast overnight at 27° C. on a rotating drum in yeast-nitrogen base broth (YNB) with amino acids (Difco, Detroit, Mich.), pH 7.0 with 0.05M morpholinepropanesulfonic acid (MOPS). The suspension was then centrifuged and washed twice with 0.85% NaCl. This was followed by sonication of the washed cell suspension for 4s (Branson Sonifier, model 350, Danbury, Conn.). The singlet blastospores were counted in a hemocytometer and adjusted to the desired concentration in 0.85% NaCl.
(§2) Antifungal Activity: The antifungal activity of the compounds and Fluconazole against the Candida and Cryptococcus strains were determined using a modification of a broth microdilution technique. Test compounds were diluted in DMSO to a 1.0 mg/ml ratio then diluted to 64 μg/ml in YNB broth, pH 7.0 with MOPS (Fluconazole was used as the control). This was to provide a working solution of each compound. Using a 96-well plate, wells 1 and 3 through 12 were prepared with YNB broth, […] dilutions of the compound solution were made in wells 2 through 11 (concentration ranges were 64 to 0.125 μg/ml). Well one served as a sterility control and blank for the spectrophotometric assays. Well twelve served as a growth control. The microtiter plates were inoculated with 10 ul in each of well 2 through 11 (final inoculum size was 10^4 organisms/ml). Inoculated plates were incubated for 48 hrs., at 35° C. The MIC values were determined spectrophotometrically by measuring the absorbance at 420 nm (Automatic Microplate Reader, DuPont Instruments, Wilmington, Del.) after agitation of the plates for 2 min with a vortex-mixer (Vorte-Genie 2 Mixer, Scientific Industries, Inc., Bolemia, N.Y.). […] With the turbidity assay this was defined as the lowest drug concentration at which turbidity in the well was <50% of the control (IC50) Minimal Cytolytic Concentrations (MCC) were determined by subculturing all wells from the 96-well plate onto a Sabourahd Dextrose Agar (SDA) plate and incubated for 1 to 2 days at 35° C. and the viability was checked.

[2] = system: Candida and Cryptococcus strains (organism not given); assay: Broth microdilution antifungal activity, Table II second MIC/MCC column pair; settings: second column pair of Table II; for MIC = Minimum inhibitory concentration (50% Inhibition): 48 hrs, 35° C., YNB broth pH 7.0; for MCC = Minimum cytolytic concentration: subculture on SDA plate
Experimental: (§3) Organisms: Three strains of Candida (Candida parpsilosis, Candida tropicalis, Candida albicans-ATCC 36082) as well as Cryptococcus neoformans were used for the initial testing. Active compounds were then tested against fluconazole resistant Candida albicans, Candida krusei, Torulopsis glabrata, and Cryptococcus neoformans along with Sporothrix shenkii and Aspergillus flavus in the secondary round of testing. All clinical strains used in this study were blood culture isolates from the Clinical Microbiology Laboratory of Harbor-UCLA Medical Center, Torrance, Calif. The organisms were maintained on Sabourahd Dextrose Agar slants at 4° C. For experimentation, singlet suspensions of each organism were prepared by growing the yeast overnight at 27° C. on a rotating drum in yeast-nitrogen base broth (YNB) with amino acids (Difco, Detroit, Mich.), pH 7.0 with 0.05M morpholinepropanesulfonic acid (MOPS). The suspension was then centrifuged and washed twice with 0.85% NaCl. This was followed by sonication of the washed cell suspension for 4s (Branson Sonifier, model 350, Danbury, Conn.). The singlet blastospores were counted in a hemocytometer and adjusted to the desired concentration in 0.85% NaCl.
as §2

[3] = system: Candida and Cryptococcus strains (organism not given); assay: Broth microdilution antifungal activity, Table II first MIC/MCC column pair; settings: for MIC = Minimum inhibitory concentration (50% Inhibition) / MCC = Minimum cytolytic concentration: first column pair of Table II; for MIC = Minimum inhibitory concentration (50% Inhibition): YNB broth pH 7.0; for MCC = Minimum cytolytic concentration: subculture on SDA plate
Experimental: as §1, §2

[4] = system: Candida and Cryptococcus strains (organism not given); assay: Broth microdilution antifungal activity, Table II third MIC/MCC column pair; settings: for MIC = Minimum inhibitory concentration (50% Inhibition): 48 hrs, 35° C., YNB broth pH 7.0; for MCC = Minimum cytolytic concentration: subculture on SDA plate
Experimental: as §3, §2

MIC = Minimum inhibitory concentration (50% Inhibition) ([1]; 48 hrs, 35° C.) [µg/mL] | MIC = Minimum inhibitory concentration (50% Inhibition) [2] [µg/mL] | MIC = Minimum inhibitory concentration (50% Inhibition) ([3]; 48 hrs, 35° C.) | MIC = Minimum inhibitory concentration (50% Inhibition) [4] [µg/mL] | MIC ([1]; Candida, 48 h, pH 7, fourth column pair of Table II, 48 hrs, 35° C., YNB broth pH 7.0, read-out: MIC = Minimum inhibitory concentration (50% Inhibition)) [µg/mL] | MIC ([3]; Candida, 48 h, pH 7, first column pair of Table II, 48 hrs, 35° C., YNB broth pH 7.0, read-out: MIC = Minimum inhibitory concentration (50% Inhibition)) [µg/mL] | SMILES | MCC = Minimum cytolytic concentration [1] [µg/mL] | MCC = Minimum cytolytic concentration [4] [µg/mL] | MCC = Minimum cytolytic concentration [2] [µg/mL] | MCC = Minimum cytolytic concentration [3] [µg/mL]
<0.03 | 0.25 (≈ 0.271 µM) | 0.25 µg/mL (≈ 0.271 µM) | – | – | – | C[C@@H]1[C@H](O)[C@@H](C)/C=C/C=C/C=C/C=C/C=C/C=C/C=C/[C@H](O[C@@H]2O[C@H](C)[C@@H](O)[C@H](N)[C@@H]2O)C[C@@H]2O[C@](O)(C[C@@H](O)C[C@@H](O)[C@H](O)CC[C@@H](O)C[C@@H](O)CC(=O)O[C@H]1C)C[C@H](O)[C@H]2C(=O)O [Amp-B, amphotericin B, reference compound] | – | – | – | –
4 (≈ 11.8 µM) | 4 (≈ 11.8 µM) | 4 µg/mL (≈ 11.8 µM) | 4 (≈ 11.8 µM) | – | – | CN(C)Cc1ccc(-c2csc(-c3cccc([N+](=O)[O-])c3)n2)cc1 [Example 1aa, 2-(3′-nitrophenyl)-4-[4″-(dimethylaminomethyl)phenyl]-thiazole] | 4 | 4 | 4 | 4
2 (≈ 5.57 µM) | 2 (≈ 5.57 µM) | 4 µg/mL (≈ 11.1 µM) | 4 (≈ 11.1 µM) | – | – | CN(CCO)Cc1ccc(-c2csc(-c3ccc(Cl)cc3)n2)cc1 [Example 1ee, 2-(4′-chlorophenyl)-4-[4″-(N-methyl-N-(2-hydroxyethyl)aminomethyl)-phenyl]thiazole] | 16 | 8 | 16 | 16
2 (≈ 5.64 µM) | 4 (≈ 11.3 µM) | 2 µg/mL (≈ 5.64 µM) | 2 (≈ 5.64 µM) | – | – | C=CCN(C)Cc1ccc(-c2csc(-c3ccc(Cl)cc3)n2)cc1 [Example 1g, 2-(4′-chlorophenyl)-4-[4″-(N-methyl-N-allylaminomethyl)phenyl]thiazole] | 8 | 8 | 8 | 8
0.5 (≈ 1.37 µM) | 0.25 (≈ 0.684 µM) | 0.5^c μg/ml | 0.125 (≈ 0.342 µM) | – | – | C=CCN(C)Cc1ccc(-c2csc(-c3ccc([N+](=O)[O-])cc3)n2)cc1 [Example 1h, 2-(4′-nitrophenyl)-4-[4″-(N-methyl-N-allylaminomethyl)phenyl]thiazole] | 2 | 0.5 | 1 | 2
8 (≈ 21.5 µM) | 4 (≈ 10.8 µM) | 8 µg/mL (≈ 21.5 µM) | 4 (≈ 10.8 µM) | – | – | CN(C)CCNCc1ccc(-c2csc(-c3ccc(Cl)cc3)n2)cc1 [Example 1jj, 2-(4′-chlorophenyl)-4-[4″-(N-(2-dimethylaminoethyl)aminomethyl)phenyl]thiazole] | 8 | 4 | 4 | 8
0.25 (≈ 0.684 µM) | 0.25 (≈ 0.684 µM) | 0.5 µg/mL (≈ 1.37 µM) | 0.25 (≈ 0.684 µM) | – | – | C=CCN(C)Cc1ccc(-c2csc(-c3cccc([N+](=O)[O-])c3)n2)cc1 [Example 1k, 2-(3′-nitrophenyl)-4-[4″-(N-methyl-N-allylaminomethyl)phenyl]thiazole] | 0.5 | 0.25 | 0.5 | 1
0.5 (≈ 1.26 µM) | 0.25 (≈ 0.632 µM) | 1 µg/mL (≈ 2.53 µM) | 1 (≈ 2.53 µM) | – | – | C=CCN(C)Cc1ccc(-c2csc(-c3ccc(OC)c([N+](=O)[O-])c3)n2)cc1 [Example 1kk, 2-(4′-methoxy-3′-nitrophenyl)-4-[4″-(N-methyl-N-allylamino-methyl)phenyl]thiazole] | 2 | 2 | 1 | 2
2 (≈ 5.01 µM) | 2 (≈ 5.01 µM) | 8 µg/mL (≈ 20 µM) | 4 (≈ 10 µM) | – | – | COc1ccc(-c2nc(-c3ccc(CN(C)CCO)cc3)cs2)cc1[N+](=O)[O-] [Example 1ll, 2-(4′-methoxy-3′-nitrophenyl)-4-[4″-(N-methyl-N-(2-hydroxy-ethyl)amino-methyl)phenyl]thiazole] | 8 | 4 | 2 | 8
8 (≈ 24.7 µM) | 4 (≈ 12.3 µM) | 8 µg/mL (≈ 24.7 µM) | 8 (≈ 24.7 µM) | – | – | C=CCNCc1ccc(-c2csc(-c3ccc(F)cc3)n2)cc1 [Example 1n, 2-(4′-fluorophenyl)-4-[4″-(N-allylaminomethyl)phenyl]thiazole] | 8 | 16 | 8 | 16
– | – | – | – | 4 (≈ 13.9 µM) | 32 (≈ 111 µM) | CN(C/C=C/c1ccccc1)Cc1cccc2ccccc12 [Naftifine, reference compound] | – | – | – | –

SMILES | MIC = Minimum inhibitory concentration (50% Inhibition) ([1]; 48 hrs, 35° C.) [µg/mL] | MIC = Minimum inhibitory concentration (50% Inhibition) [2] [µg/mL] | MIC = Minimum inhibitory concentration (50% Inhibition) ([3]; 48 hrs, 35° C.) | MIC = Minimum inhibitory concentration (50% Inhibition) [4] [µg/mL] | MIC ([1]; Candida, 48 h, pH 7, fourth column pair of Table II, 48 hrs, 35° C., YNB broth pH 7.0, read-out: MIC = Minimum inhibitory concentration (50% Inhibition)) [µg/mL] | MIC ([3]; Candida, 48 h, pH 7, first column pair of Table II, 48 hrs, 35° C., YNB broth pH 7.0, read-out: MIC = Minimum inhibitory concentration (50% Inhibition)) [µg/mL] | MCC = Minimum cytolytic concentration [1] [µg/mL] | MCC = Minimum cytolytic concentration [4] [µg/mL] | MCC = Minimum cytolytic concentration [2] [µg/mL] | MCC = Minimum cytolytic concentration [3] [µg/mL]
C=CCN(C)Cc1ccc(-c2csc(-c3ccc(F)cc3)n2)cc1 [Example 1, 2-(4′-fluorophenyl)-4-[4″-(N-methyl-N-allylaminomethyl)phenyl]thiazole] | 4 (≈ 11.8 µM) | 4 (≈ 11.8 µM) | 4^c μg/ml | 4 (≈ 11.8 µM) | – | – | 16 | 16 | 16 | 16
